In patent EP0385952A2, “Use of a naphthalenmethanamino derivative as antiinflammatory agent and pharmaceutical compositions containing it” (SANDOZ AG, priority 1989, dated 1990):
Where two headings read alike, the source gives them in different places. Marks after values point to notes of the source that are not given here.

Tests used:
[1] = system: Macrophages isolated from the bone marrow of mice; test: Inhibition of Con A-stimulated plasminogen activator release; type: cell-based; settings: Mus musculus, Macrophage; Con A 100 µg/ml, 24 hours; read-out: IC₅₀, Con A-stimulated plasminogen activator release
Protocol: Macrophages 10 to 14 days old isolated from the bone marrow of mice are incubated in monolayers with the test compound in the presence of Concanavalin A (Con A) (100 µg/ml) as soluble stimulant. After 24 hours the cell-free medium is collected and macrophage activation is investigated biochemically as the extent of plasminogen activator release, assayed photometrically as the plasminogen-dependent amidolysis of D-Val-Phe-Lys-4-nitroanilide according to the principles described in J.C. Drapier et al., Biochemie 61 (1979) 463-471. Cell viability is assayed by measurement of lactate dehydrogenase release according to the method of H.U. Bergmeyer and E. Bernt, Methoden der Enzymatischen Analyse, 3. Auflage, Verlag Chemie (1974) 612-615, adapted as a kinetic assay using microtiter plates. All cultures are checked microscopically for qualitative morphological modification.

[2] = system: bovine platelets; test: Thrombin-stimulated release from platelets; type: cell-based; settings: Bos taurus, Platelet
[3] = system: NMRI mice; test: Allergic contact dermatitis to oxazolone (2.3.); type: in vivo; settings: therapeutic, test concentration 3.6 %, topical twice, pinnal weight after 24 hours, 0̸ = no activity
Protocol: Skin irritation with arachidonic acid or cantharidin is often used to experimentally induce inflammation in order to evaluate the anti-inflammatory activity of a compound [see e.g. Inflammation 8 (1984) 134-135; 10 (1986) 205-214]. NMRI mice (8 animals per group) receive 10 µl of a 10 % solution of arachidonic acid [J.M. Young et al., J. Invest. Derm. 82 (1986) 367-371] in acetone or, respectively, 0.08 % cantharidin [K.E. Swingle et al., Arch. Int. Pharmacodyn. Ther. 254 (1981) 168-176] in acetone applied to the medial and lateral surface of the right external ear. […] The animals are killed 1.5 hours (arachidonic acid) or, respectively, 17 hours (cantharidin) after application of the irritant and efficacy in assessed by determination of the differences in auricular weight. […] Efficacy (%) is calculated according to the equation: [formula]
The inhibition of allergic contact dermatitis to oxazolone in mice is determined. […] 24 hours after skin testing treatment-related inhibition of contact dermatitis is assessed by pinnal weight as described above (see 2.1.1.). […]

[4] = system: human neutrophils; test: Zymosan-stimulated superoxide release; type: cell-based; settings: Neutrophil, read-out: IC₅₀ for zymosan-stimulated superoxide release

**Q.** With `CN(C/C=C/c1ccc(O)cc1)Cc1cccc2ccccc12` [compound of the invention, (E)-N-methyl-N-[3-(4-hydroxyphenyl)-2-propenyl]-1-naphthalene-methanamine] as the molecule, how does the IC50 [1] read?
**A.** 1.8 µM

**Q.** What about the IC50 ([2]; read-out: IC₅₀ for thrombin-stimulated release of N-glucosaminidase) of the same molecule?
**A.** > 100 µM

**Q.** And the IC50 ([2]; read-out: IC₅₀ for thrombin-stimulated release of serotonin)?
**A.** > 100 µM

**Q.** And the “Efficacy (%)” value [3]?
**A.** 42** %

**Q.** What about the IC50 [4] of the same molecule?
**A.** > 100 µM
